How the values were obtained:
[1] = biological target: T1, LRH-1 (Homo sapiens, UniProt O00482); assay: human LRH-1 transactivation, HeLa cotransfection with LRH-1/SF-1 response element luciferase reporter; type: cell-based; set-up: expressed in transfected cells; host or cells: HeLa (A1, A3); settings: HeLa cells, 100 μM
Procedure: Controls (vector only and no lipid) are as indicated. […] Cells were treated with 100 μM of the indicated PCs and luciferase expression (RLU, relative light units) was normalized using an internal β-galactosidase control. vec, empty vector; −, ethanol solvent control.
HeLa cells were transfected with an hLRH-1 expression vector along with mSHP1080-Luc reporter. […] Oct4-PPmut Luc is identical to Oct4-PP Luc except for the insertion of point mutations in the DR0 element. […] HeLa cells were cotransfected with various nuclear receptors and the reporter plasmid (RE-tk-luc). […] Data are expressed for each reporter as fold activation of normalized luciferase activity relative to veh-treated cells.
A number of different phosphatidylcholine (PC) species were screened for effects on human LRH-1 transactivation in HeLa cell cotransfections with a synthetic luciferase reporter containing multiple copies of an LRH-1/SF-1 response element.

[2] = biological target: T2, SF-1 (Homo sapiens, UniProt Q13285); set-up: expressed in transfected cells; host or cells: HeLa; settings: in vitro, Li et al. Mol Cell Biol 2007; read-out: affinity of SF-1; cited from earlier work
T2 sequence (Q13285 whole entry): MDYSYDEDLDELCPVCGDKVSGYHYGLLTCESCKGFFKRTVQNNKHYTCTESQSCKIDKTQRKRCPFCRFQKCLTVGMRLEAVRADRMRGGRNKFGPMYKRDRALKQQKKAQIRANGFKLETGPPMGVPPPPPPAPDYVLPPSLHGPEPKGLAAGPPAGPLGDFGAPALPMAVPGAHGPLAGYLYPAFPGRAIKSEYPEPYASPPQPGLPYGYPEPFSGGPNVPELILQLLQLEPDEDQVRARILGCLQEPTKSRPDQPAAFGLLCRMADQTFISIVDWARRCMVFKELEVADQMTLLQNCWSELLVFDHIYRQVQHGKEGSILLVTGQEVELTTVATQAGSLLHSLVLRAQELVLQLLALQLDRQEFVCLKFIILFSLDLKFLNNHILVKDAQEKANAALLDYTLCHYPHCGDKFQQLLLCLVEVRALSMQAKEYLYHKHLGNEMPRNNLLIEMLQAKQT

[3] = biological target: T2, SF-1; assay: SF-1 transactivation, reporter cotransfection in HeLa cells
[4] = biological target: hLRH-1 LBD / SRC-3 receptor interaction domain (Homo sapiens, UniProt O00482); assay: mammalian two-hybrid assay, VP16-hLRH1 LBD with Gal4-SRC3 RID in HeLa cells
Sequence of hLRH-1 LBD / SRC-3 receptor interaction domain (O00482 300-539 limits assumed): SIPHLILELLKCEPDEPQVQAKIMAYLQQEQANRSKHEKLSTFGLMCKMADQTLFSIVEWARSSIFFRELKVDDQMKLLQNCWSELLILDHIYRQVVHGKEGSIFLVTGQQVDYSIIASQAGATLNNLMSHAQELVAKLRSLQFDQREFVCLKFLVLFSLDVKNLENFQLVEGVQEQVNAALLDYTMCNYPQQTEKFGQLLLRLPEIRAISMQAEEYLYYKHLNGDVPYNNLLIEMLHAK
Sequence of hLRH-1 LBD / SRC-3 receptor interaction domain (Q9Y6Q9 whole entry partner, the tested form may be a part): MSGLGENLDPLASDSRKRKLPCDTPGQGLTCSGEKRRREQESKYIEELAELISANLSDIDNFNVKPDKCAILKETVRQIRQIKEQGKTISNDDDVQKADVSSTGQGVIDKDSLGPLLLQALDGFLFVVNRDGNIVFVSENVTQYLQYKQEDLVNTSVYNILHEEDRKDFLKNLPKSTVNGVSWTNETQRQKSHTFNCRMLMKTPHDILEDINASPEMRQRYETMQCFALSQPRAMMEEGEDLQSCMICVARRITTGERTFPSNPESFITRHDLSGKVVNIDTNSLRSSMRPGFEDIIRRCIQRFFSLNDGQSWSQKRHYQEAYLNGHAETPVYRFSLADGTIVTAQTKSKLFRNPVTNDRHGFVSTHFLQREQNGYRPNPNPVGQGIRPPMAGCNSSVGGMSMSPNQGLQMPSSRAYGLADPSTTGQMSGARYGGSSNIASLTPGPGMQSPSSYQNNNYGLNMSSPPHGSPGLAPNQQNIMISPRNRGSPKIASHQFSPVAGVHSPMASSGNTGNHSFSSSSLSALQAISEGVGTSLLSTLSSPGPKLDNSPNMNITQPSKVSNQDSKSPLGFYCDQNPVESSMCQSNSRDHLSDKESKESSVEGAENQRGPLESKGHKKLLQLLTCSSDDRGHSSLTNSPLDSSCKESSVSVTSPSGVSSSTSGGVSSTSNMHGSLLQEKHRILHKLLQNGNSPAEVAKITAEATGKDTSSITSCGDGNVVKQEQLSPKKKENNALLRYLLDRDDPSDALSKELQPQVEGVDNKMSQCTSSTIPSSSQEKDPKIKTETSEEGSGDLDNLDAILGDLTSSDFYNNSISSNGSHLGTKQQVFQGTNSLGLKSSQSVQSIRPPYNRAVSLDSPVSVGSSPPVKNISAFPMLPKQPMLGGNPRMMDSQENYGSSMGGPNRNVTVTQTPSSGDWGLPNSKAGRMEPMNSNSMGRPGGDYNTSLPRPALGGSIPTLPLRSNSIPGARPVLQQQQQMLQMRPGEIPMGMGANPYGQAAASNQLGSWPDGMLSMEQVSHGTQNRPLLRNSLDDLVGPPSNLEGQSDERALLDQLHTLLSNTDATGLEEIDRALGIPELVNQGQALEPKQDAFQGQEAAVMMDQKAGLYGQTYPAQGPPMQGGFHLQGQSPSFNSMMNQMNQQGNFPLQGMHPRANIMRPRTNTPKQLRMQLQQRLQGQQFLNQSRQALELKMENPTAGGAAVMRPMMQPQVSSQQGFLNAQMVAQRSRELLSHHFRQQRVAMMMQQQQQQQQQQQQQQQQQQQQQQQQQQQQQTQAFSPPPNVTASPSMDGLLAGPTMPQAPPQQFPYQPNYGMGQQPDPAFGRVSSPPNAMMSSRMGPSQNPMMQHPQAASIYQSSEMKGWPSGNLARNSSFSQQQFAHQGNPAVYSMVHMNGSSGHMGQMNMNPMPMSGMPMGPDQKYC

[5] = biological target: T1, LRH-1; assay: LRH-1 Luc reporter in C3A HepG2 cells (endogenous hLRH-1); settings: C3A/HepG2 cells or cells with non-target control siRNAs
[6] = test system: hepatic expression of Cyp7A1, Cyp8B1, mSR-BI, SHP; assay: hepatic gene expression (Q-PCR) in wild type mice after oral gavage; type: in vivo, mouse; settings: 100 mg/kg oral, five times over three days
Description: (§1) Total liver RNA was isolated and prepared for the cDNA. […] Total liver RNA was isolated and prepared for cDNA.

[7] = biological target: T1, LRH-1; assay: Oct4 proximal promoter (Oct4-PP Luc) activation by hLRH-1 in COS-1 cells; settings: COS-1 cells, Oct4-PP Luc
[8] = test system: wild type male mice; assay: bile acids, serum glucose and NEFA in wild type mice after oral gavage; type: in vivo, mouse; settings: 100 mg/kg oral
[9] = test system: LRH-1; assay: hepatic gene expression in LRH-1 f/f mice infected with Ad-Cre; type: in vivo, mouse; settings: 100 mg/kg oral
Description: as §1

[10] = biological target: TRβ (Homo sapiens, UniProt P10828); assay: nuclear receptor cotransfection (RE-tk-luc), HeLa cells; settings: 100 μM
Sequence of TRβ (P10828 whole entry): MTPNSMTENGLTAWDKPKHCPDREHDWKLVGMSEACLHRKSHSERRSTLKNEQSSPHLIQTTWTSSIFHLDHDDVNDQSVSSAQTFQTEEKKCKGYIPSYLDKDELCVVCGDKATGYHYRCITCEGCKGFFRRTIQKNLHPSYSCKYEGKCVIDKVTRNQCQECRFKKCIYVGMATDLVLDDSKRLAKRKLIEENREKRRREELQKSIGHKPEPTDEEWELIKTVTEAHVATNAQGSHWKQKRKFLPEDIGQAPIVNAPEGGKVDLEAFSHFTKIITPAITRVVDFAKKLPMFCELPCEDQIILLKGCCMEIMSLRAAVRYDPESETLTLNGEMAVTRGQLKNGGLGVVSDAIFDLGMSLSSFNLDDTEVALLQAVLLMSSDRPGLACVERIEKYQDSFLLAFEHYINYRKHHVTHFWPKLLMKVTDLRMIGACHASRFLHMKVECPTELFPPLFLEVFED

[11] = biological target: FXR (Homo sapiens, UniProt Q96RI1); assay: as above; settings: 100 μM
Sequence of FXR (Q96RI1 whole entry, species assumed): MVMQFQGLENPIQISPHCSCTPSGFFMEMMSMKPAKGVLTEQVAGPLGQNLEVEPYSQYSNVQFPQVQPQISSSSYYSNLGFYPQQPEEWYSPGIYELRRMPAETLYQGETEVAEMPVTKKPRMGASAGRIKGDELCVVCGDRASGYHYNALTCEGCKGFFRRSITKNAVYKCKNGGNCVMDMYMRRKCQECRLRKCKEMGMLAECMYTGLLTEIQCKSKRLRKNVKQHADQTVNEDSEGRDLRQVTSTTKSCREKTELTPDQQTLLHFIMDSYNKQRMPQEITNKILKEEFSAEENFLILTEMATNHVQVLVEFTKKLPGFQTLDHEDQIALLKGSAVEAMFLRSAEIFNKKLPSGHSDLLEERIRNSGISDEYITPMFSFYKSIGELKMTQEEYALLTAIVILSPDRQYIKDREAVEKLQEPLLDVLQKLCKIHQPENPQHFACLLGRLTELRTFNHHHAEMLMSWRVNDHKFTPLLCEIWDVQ

[12] = biological target: mouse CAR (Mus musculus, UniProt O35627); assay: as above; settings: 100 μM
Sequence of mouse CAR (O35627 whole entry): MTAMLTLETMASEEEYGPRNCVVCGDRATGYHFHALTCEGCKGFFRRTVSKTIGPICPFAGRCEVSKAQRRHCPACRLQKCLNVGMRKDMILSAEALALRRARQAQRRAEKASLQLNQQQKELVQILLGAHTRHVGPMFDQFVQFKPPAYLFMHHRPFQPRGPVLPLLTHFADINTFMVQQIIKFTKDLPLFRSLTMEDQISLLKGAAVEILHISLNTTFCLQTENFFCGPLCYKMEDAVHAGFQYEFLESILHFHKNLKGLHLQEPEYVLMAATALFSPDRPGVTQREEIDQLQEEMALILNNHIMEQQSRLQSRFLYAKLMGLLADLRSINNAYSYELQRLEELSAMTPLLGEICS

[13] = test system: LRH-1 target Cyp8B1; assay: hCYP8B1 expression by Q-PCR in C3A HepG2 cells; settings: for expression of Cyp8B1: C3A/HepG2 cells or cells with non-target control siRNAs
[14] = test system: hepatic gene expression; assay: hepatic mRNA levels in db/db mice
[15] = biological target: PPARδ (Homo sapiens, UniProt Q03181); assay: nuclear receptor cotransfection (RE-tk-luc), HeLa cells; settings: 100 μM
[16] = biological target: LXRα (Homo sapiens, UniProt Q13133); assay: as above; settings: 100 μM
[17] = biological target: human PXR (Homo sapiens, UniProt O75469); assay: as above; settings: 100 μM
Sequence of human PXR (O75469 whole entry): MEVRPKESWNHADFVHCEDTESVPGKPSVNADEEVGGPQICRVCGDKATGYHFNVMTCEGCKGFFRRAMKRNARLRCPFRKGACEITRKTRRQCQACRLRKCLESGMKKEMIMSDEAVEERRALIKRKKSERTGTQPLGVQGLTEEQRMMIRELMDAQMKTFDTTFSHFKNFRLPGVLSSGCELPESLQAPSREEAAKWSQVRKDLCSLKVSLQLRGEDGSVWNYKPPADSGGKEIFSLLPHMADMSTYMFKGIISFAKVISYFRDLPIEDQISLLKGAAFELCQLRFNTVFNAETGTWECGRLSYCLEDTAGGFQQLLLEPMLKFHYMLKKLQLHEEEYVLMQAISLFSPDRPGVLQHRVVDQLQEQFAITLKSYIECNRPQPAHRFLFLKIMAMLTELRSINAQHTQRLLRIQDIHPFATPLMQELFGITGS

[18] = biological target: RXRα (Homo sapiens, UniProt P19793); assay: as above; settings: 100 μM
[19] = biological target: PPARγ (Homo sapiens, UniProt P37231); assay: as above; settings: 100 μM
[20] = test system: db/db mice; assay: body and organ weights, serum and hepatic parameters in db/db mice
[21] = test system: db/db mice; assay: glucose tolerance and insulin tolerance tests in db/db mice; type: in vivo, mouse; settings: for glucose tolerance test (GTT): oral gavage 2 weeks
Procedure: Glucose tolerance (GTT: 1.5 g/kg i.p.) was assessed in fasted mice. One week later, insulin tolerance (ITT: 2 U/kg i.p) was assessed in fed mice. In the ITT, glucose levels after insulin injection are presented as the percentage of initial glucose concentrations.
After 1 week of additional treatment, the same mice were given an insulin tolerance test (ITT) and sacrificed.

[22] = biological target: human CAR (Homo sapiens, UniProt Q14994); assay: nuclear receptor cotransfection (RE-tk-luc), HeLa cells; settings: 100 μM
[23] = biological target: PPARα (Homo sapiens, UniProt Q07869); assay: as above; settings: 100 μM
Sequence of PPARα (Q07869 whole entry, species assumed): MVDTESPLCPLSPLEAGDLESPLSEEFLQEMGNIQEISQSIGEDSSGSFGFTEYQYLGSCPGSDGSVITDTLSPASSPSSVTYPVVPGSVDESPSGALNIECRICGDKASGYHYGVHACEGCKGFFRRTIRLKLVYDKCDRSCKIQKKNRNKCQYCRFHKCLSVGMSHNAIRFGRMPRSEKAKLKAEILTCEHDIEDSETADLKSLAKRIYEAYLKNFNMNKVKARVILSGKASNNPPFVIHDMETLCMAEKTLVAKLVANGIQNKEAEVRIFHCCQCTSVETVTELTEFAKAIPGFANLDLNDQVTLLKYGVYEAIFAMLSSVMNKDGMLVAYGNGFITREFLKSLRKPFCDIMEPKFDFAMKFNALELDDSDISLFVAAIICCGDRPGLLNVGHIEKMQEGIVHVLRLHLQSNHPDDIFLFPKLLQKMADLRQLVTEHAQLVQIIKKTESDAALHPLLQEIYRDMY

[24] = biological target: RARβ (Homo sapiens, UniProt P10826); assay: as above; settings: 100 μM
[25] = biological target: ERα (Homo sapiens, UniProt P03372); assay: as above; settings: 100 μM

T1 sequence (O00482 whole entry): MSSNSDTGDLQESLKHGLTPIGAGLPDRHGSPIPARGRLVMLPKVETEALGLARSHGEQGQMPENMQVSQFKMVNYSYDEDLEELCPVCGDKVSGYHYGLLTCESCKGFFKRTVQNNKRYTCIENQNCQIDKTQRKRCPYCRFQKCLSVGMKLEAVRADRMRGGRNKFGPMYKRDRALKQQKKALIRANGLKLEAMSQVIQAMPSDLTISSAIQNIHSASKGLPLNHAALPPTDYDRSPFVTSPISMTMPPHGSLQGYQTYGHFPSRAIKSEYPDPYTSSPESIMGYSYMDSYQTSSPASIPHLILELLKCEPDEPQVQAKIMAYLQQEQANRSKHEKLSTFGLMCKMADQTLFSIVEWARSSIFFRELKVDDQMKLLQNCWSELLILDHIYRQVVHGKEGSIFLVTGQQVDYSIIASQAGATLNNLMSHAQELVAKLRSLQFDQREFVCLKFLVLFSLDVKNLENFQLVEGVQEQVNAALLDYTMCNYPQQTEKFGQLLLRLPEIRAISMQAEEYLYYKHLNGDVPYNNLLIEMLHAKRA

CCCCCCCCCCCC(=O)OC[C@H](COP(=O)(O)OCCN)OC(=O)CCCCCCCCCCC [C12:0-12:0 PE]
LRH-1 transactivation (luciferase) [1]: no activation

CCCCCCCCCC(=O)OC[C@H](COP(=O)(O)OCCN)OC(=O)CCCCCCCCC [C10:0-10:0 PE]
LRH-1 transactivation (luciferase) [1]: no activation

CCCCCCCCCCCCCC(=O)OC[C@H](COP(=O)(O)O)OC(=O)CCCCCCCCCCCCC [C14:0-C14:0 PA]
Kd [2]: ~0.1 µM
increase of SF-1 transactivation [3]: 1.2-1.4 fold
LRH-1 transactivation (luciferase) [1]: no effect

CCCCCCCCCCCCCC(=O)OC[C@H](COP(=O)(O)OCCN)OC(=O)CCCCCCCCCCCCC [C14:0-C14:0 PE]
LRH-1 transactivation (luciferase) [1]: no activation

C[C@H](CCC(=O)O)[C@H]1CC[C@H]2[C@@H]3[C@H](O)C[C@@H]4C[C@H](O)CC[C@]4(C)[C@H]3CC[C@]12C [CDCA, chenodeoxycholic acid]
interaction of hLRH-1 LBD with SRC-3 RID [4]: unaffected
LRH-1 Luc luciferase activity [5]: not

C[C@H](CCC(=O)O)[C@H]1CC[C@H]2[C@@H]3[C@H](O)C[C@@H]4C[C@H](O)CC[C@]4(C)[C@H]3C[C@H](O)[C@]12C [CA, cholic acid, reference compound]
hepatic expression of Cyp7A1 [6]: reduced
hepatic expression of Cyp8B1 [6]: reduced
hepatic expression of SHP [6]: induced
hepatic expression of mSR-BI [6]: induced
response with the Oct4 promoter [7]: not
liver bile acids [8]: did not show statistically significant changes
serum bile acid levels [8]: substantially elevated
serum free fatty acids [8]: decreased levels
serum glucose levels [8]: not
hepatic gene expression response when LRH-1 gene removed by Cre [9]: lost

CCCCCCCCCCCC(=O)OCC(COP(=O)([O-])OCC[N+](C)(C)C)OC(=O)CCCCCCCCCCC (stereo not drawn) [DLPC, dilauroylphosphatidylcholine]
activation or inhibition of TRβ [10]: did not activate or inhibit
activation or inhibition of FXR [11]: did not activate or inhibit
activation or inhibition of mouse CAR [12]: did not activate or inhibit
hepatic expression of Cyp7A1 [6]: significantly induced
hepatic expression of Cyp8B1 [6]: significantly induced
hepatic expression of SHP [6]: repressed
hepatic expression of mSR-BI [6]: significantly induced
expression of Cyp8B1 [13]: modestly but significantly induced
Cyp8B1 response when LRH-1 expression is knocked down ([13]; siRNA hLRH-1): lost
SHP expression ([14]; mouse, in vivo): appeared to be decreased
expression of ACC2 ([14]; mouse, in vivo): significantly decreased
expression of FAS ([14]; mouse, in vivo): significantly decreased
expression of SCD-1 ([14]; mouse, in vivo): significantly decreased
expression of SREBP-1c ([14]; mouse, in vivo): significantly decreased
hepatic expression of Cyp7A1 ([14]; mouse, in vivo): increased expression
hepatic expression of Cyp8B1 ([14]; mouse, in vivo): increased expression
hepatic expression of genes associated with glucose homeostasis (ACC1, glucokinase, hexokinase 1 and 2, PEPCK, glucose-6-phosphatase, pyruvate carboxylase, PGC-1α) ([14]; mouse, in vivo): no effect
activation or inhibition of PPARδ [15]: did not activate or inhibit
activation or inhibition of LXRα [16]: did not activate or inhibit
SF-1 activation ([3]; 100 μM): activate SF-1
activation or inhibition of human PXR [17]: did not activate or inhibit
activation or inhibition of RXRα [18]: did not activate or inhibit
activation or inhibition of PPARγ [19]: did not activate or inhibit
hepatic NEFA [20]: more modestly lowered
hepatic cholesterol [20]: increased
hepatic triglycerides (TG) [20]: significantly decreased
serum bile acid levels [20]: significantly increased
serum cholesterol [20]: modestly decreased
serum free fatty acids (NEFA) [20]: modestly decreased
total body weight [20]: not altered
weight of liver [20]: not altered
weight of reproductive fat pads [20]: not altered
liver bile acids [8]: somewhat lower
serum bile acid levels [8]: substantially elevated
serum free fatty acids [8]: decreased levels
serum glucose levels [8]: decreased serum glucose levels
total bile acid pool [8]: significant increase
glucose tolerance test (GTT) [21]: remarkable improvement
insulin tolerance test (ITT) ([21]; oral gavage 3 weeks): remarkable improvement
activation or inhibition of human CAR [22]: did not activate or inhibit
activation or inhibition of PPARα [23]: did not activate or inhibit
activation or inhibition of RARβ [24]: did not activate or inhibit
activation or inhibition of ERα [25]: did not activate or inhibit

CCCCCCCCCCCCCCCC(=O)OC[C@H](COP(=O)([O-])OCC[N+](C)(C)C)OC(=O)CCCCCCCCCCCCCCC [DPPC, dipalmitoyl PC, reference compound]
hepatic expression of Cyp7A1 [6]: without significant effect
hepatic expression of Cyp8B1 [6]: without significant effect
hepatic expression of SHP [6]: without significant effect
hepatic expression of mSR-BI [6]: without significant effect
expression of Cyp8B1 [13]: not
SR-B1 expression ([14]; db/db mice): not significantly affected
hepatic expression of Cyp7A1 ([14]; db/db mice): not
hepatic expression of genes associated with glucose homeostasis (ACC1, glucokinase, hexokinase 1 and 2, PEPCK, glucose-6-phosphatase, pyruvate carboxylase, PGC-1α) ([14]; db/db mice): no effect
SHP expression ([14]; db/db mice, not statistically significant): appeared to be decreased
response with the Oct4 promoter [7]: not
serum bile acid levels [20]: not
total body weight [20]: not altered
weight of liver [20]: not altered
weight of reproductive fat pads [20]: not altered
glucose tolerance test (GTT) [21]: lesser beneficial response
interaction of hLRH-1 LBD with SRC-3 RID [4]: unaffected
LRH-1 Luc luciferase activity [5]: not

— patent US8410085B2, “Phospholipid compositions and uses thereof” (Baylor College of Medicine, priority 2007, dated 2013)
